From paper PMC5562448 (Chembiochem : a European journal of chemical biology, 2017)

Legend:
HSPA1A = HSPA1A (Homo sapiens, UniProt P0DMV8); assay: isothermal titration calorimetry; type: binding; settings: n=0.9
HSPA8 = HSPA8 (Homo sapiens, UniProt P11142); assay: isothermal titration calorimetry; type: binding; settings: n=1.1
HSPA8, sequence (P11142 2-646): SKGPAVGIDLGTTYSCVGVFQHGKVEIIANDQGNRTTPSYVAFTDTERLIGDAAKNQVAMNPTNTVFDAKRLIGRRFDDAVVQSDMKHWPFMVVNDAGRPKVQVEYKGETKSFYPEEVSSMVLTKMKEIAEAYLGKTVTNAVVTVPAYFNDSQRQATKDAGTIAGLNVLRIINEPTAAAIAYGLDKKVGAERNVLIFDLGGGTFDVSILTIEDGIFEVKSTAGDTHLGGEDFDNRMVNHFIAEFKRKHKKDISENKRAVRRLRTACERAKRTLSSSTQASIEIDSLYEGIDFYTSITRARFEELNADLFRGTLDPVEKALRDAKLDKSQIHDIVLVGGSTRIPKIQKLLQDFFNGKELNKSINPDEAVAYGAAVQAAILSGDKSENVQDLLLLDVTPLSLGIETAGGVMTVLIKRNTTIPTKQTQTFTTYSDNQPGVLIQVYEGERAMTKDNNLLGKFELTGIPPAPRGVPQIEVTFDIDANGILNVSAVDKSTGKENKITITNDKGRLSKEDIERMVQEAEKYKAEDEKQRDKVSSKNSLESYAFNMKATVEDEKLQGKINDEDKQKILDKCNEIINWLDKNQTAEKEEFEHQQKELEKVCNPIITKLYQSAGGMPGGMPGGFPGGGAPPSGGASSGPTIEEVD

HSPA1A, sequence (P0DMV8 2-641): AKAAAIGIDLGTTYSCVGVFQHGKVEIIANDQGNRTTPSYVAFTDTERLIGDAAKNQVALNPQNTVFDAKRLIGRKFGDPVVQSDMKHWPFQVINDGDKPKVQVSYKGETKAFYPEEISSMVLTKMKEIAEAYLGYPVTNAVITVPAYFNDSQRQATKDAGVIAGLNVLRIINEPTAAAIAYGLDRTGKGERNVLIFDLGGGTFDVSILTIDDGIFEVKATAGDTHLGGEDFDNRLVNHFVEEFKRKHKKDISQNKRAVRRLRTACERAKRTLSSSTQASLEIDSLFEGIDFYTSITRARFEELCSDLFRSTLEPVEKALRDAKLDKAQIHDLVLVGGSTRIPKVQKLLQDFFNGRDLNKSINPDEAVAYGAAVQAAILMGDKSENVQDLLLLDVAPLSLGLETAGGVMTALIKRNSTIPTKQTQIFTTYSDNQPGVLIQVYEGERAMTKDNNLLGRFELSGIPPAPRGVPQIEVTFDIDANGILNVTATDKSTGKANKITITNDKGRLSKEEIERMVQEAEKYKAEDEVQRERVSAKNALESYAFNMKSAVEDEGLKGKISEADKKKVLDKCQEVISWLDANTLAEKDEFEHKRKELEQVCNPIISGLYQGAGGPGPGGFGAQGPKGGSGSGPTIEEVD

SMILES: C[C@@H]1[C@]2(O[C@H]3C=C4[C@@H]5CC[C@H]6Cc7nc8c(nc7C[C@]6(C)[C@H]5C[C@@H](O)[C@]4(C)[C@]31O)C[C@@H]1CC[C@H]3C4=C[C@@H]5O[C@]6(CCC(C)(C)O6)[C@@H](C)[C@@H]5[C@@]4(C)[C@H](O)C[C@@H]3[C@@]1(C)C8)O[C@](C)(CO)C[C@H]2O [compound 3, ritterostatin GN1N]
- Kd (HSPA1A): 625 nM
- Kd (HSPA8): 1630 nM
